# Source: paper PMC8079033, “Design, synthesis, anticancer evaluation, and molecular modelling studies of novel tolmetin derivatives as potential VEGFR-2 inhibitors and apoptosis inducers” (Journal of Enzyme Inhibition and Medicinal Chemistry, 2021)
# Tests used:
# MDA-MB-468 = test: NCI 60-cell line one-dose antiproliferative screen (SRB); type: cell-based; settings: Homo sapiens, read-out: growth inhibition % (GI%)
# Description: (§1) Anticancer activity screening of the newly synthesised compounds was measured in vitro utilising 60 different human tumour cell lines provided by US National Cancer Institute according to previously reported standard procedure[41–43] as follows: Cells are inoculated into 96-well microtiter plates in 100 ml. After cell inoculation, the microtiter plates are incubated at 37 °C, 5% CO2, 95% air, and 100% relative humidity for 24 h prior to addition of experimental compounds. After 24 h, two plates of each cell line are fixed in situ with TCA, to represent a measurement of the cell population for each cell line at the time of compound addition (Tz). Experimental compounds are solubilised in dimethyl sulfoxide at 400-fold the desired final maximum test concentration and stored frozen prior to use. At the time of compound addition, an aliquot of frozen concentrate is thawed and diluted to twice the desired final maximum test concentration with a complete medium containing […] gentamicin. Aliquots of […] of the compounds dilutions are added to the appropriate microtiter wells already containing 100 ml of medium, resulting in the required final compound concentration. Following compound addition, the plates are incubated for an additional 48 h at 37 °C, 5% CO2, 95% air, and 100% relative humidity. For adherent cells, the assay is terminated by the addition of cold trichloroacetic acid (TCA). Cells are fixed in situ by the gentle addition of 50 ml of cold 50% (w/v) TCA (final concentration, 10% TCA) and incubated for […] at 4 °C. The supernatant is discarded, and the plates are washed five times with tap water and air-dried. Sulforhodamine B (SRB) solution (100 ml) at 0.4% (w/v) in 1% acetic acid is added to each well, and plates are incubated for 10 min at room temperature. After staining, the unbound dye is removed by washing five times with 1% acetic acid and the plates are air-dried. The bound stain is subsequently solubilised with a 10 mM trizma base, and the absorbance is read on an automated plate reader at a wavelength of 515 nm. For suspension cells, the methodology is the same except that the assay is terminated by fixing settled cells at the bottom of the wells by gently adding 50 ml of 80% TCA (final concentration, 16% TCA). Using the absorbance measurements [time zero, (Tz), control growth, (C), and test growth in the presence of compound (Ti)], the percentage growth is calculated for each compound. The One-dose data are reported as a mean graph of the percent growth of treated cells. The reported number is growth relative to the no-compound control, and relative to the time zero number of cells. This allows the detection of both growth inhibition and lethality.
# (§2) Fifteen newly synthesised compounds were tested for their in vitro antiproliferative activity by the National Cancer Institute (NCI), Maryland, USA[50], under the Developmental Therapeutic Program (DTP)[41]^,[43]^,[51]^,[52]. The tested compounds were evaluated at a concentration of 10 µM on a panel of 60 tumour cell lines representing leukaemia and non-small cell lung, colon, CNS, melanoma, ovarian, renal, prostate, and breast cancers. The antiproliferative activity was presented by the NCI as percent growth of the treated cells and is presented in Table 1 as growth inhibition percentage (GI%) achieved by the tested compounds.
# SF-268 = test: as above; type: cell-based; settings: Homo sapiens, read-out: growth inhibition % (GI%)
# Description: as §1, §2
# OVCAR-8 = test: as above; type: cell-based; settings: Homo sapiens, read-out: growth inhibition % (GI%)
# Description: as §1, §2
# SK-MEL-5 = test: as above; type: cell-based; settings: Homo sapiens, read-out: growth inhibition % (GI%)
# Description: as §1, §2
# SF-539 = test: as above; type: cell-based; settings: Homo sapiens, read-out: growth inhibition % (GI%)
# Description: as §1, §2
# HOP-62 = test: as above; type: cell-based; settings: Homo sapiens, read-out: growth inhibition % (GI%)
# Description: as §1, §2
# RPMI-8226 = test: as above; type: cell-based; settings: Homo sapiens, read-out: growth inhibition % (GI%)
# Description: as §1, §2
# T-47D = test: as above; type: cell-based; settings: Homo sapiens, T47D, read-out: growth inhibition % (GI%)
# Description: as §1, §2
# NCI-H23 = test: as above; type: cell-based; settings: Homo sapiens, read-out: growth inhibition % (GI%)
# Description: as §1, §2
# NCI-H226 = test: as above; type: cell-based; settings: Homo sapiens, read-out: growth inhibition % (GI%)
# Description: as §1, §2
# RXF 393 = test: as above; type: cell-based; settings: Homo sapiens, read-out: growth inhibition % (GI%)
# Description: as §1, §2
# HS 578 T = test: as above; type: cell-based; settings: Homo sapiens, read-out: growth inhibition % (GI%)
# Description: as §1, §2
# EKVX = test: as above; type: cell-based; settings: Homo sapiens, read-out: growth inhibition % (GI%)
# Description: as §1, §2
# U251 = test: as above; type: cell-based; settings: Homo sapiens, U-251, read-out: growth inhibition % (GI%)
# Description: as §1, §2
# CAKI-1 = test: as above; type: cell-based; settings: Homo sapiens, read-out: growth inhibition % (GI%)
# Description: as §1, §2
# SNB-75 = test: as above; type: cell-based; settings: Homo sapiens, read-out: growth inhibition % (GI%)
# Description: as §1, §2
# NCI-H522 = test: as above; type: cell-based; settings: Homo sapiens, read-out: growth inhibition % (GI%)
# Description: as §1, §2
# UO-31 = test: as above; type: cell-based; settings: Homo sapiens, read-out: growth inhibition % (GI%)
# Description: as §1, §2
# PC-3 = test: as above; type: cell-based; settings: Homo sapiens, read-out: growth inhibition % (GI%)
# Description: as §1, §2
# MDA-MB-231/ATCC = test: as above; type: cell-based; settings: Homo sapiens, read-out: growth inhibition % (GI%)
# Description: as §1, §2
# A498 = test: as above; type: cell-based; settings: Homo sapiens, read-out: growth inhibition % (GI%)
# Description: as §1, §2
# IGROV1 = test: as above; type: cell-based; settings: Homo sapiens, IGROV-1, read-out: growth inhibition % (GI%)
# Description: as §1, §2
# ACHN = test: as above; type: cell-based; settings: Homo sapiens, read-out: growth inhibition % (GI%)
# Description: as §1, §2
# SN 12 C = test: as above; type: cell-based; settings: Homo sapiens, SN12C, read-out: growth inhibition % (GI%)
# Description: as §1, §2
# BT-5 = test: as above; type: cell-based; settings: Homo sapiens, read-out: growth inhibition % (GI%)
# Description: as §1, §2
# LOX IMVI = test: as above; type: cell-based; settings: Homo sapiens, read-out: growth inhibition % (GI%)
# Description: as §1, §2
# M14 = test: as above; type: cell-based; settings: Homo sapiens, read-out: growth inhibition % (GI%)
# Description: as §1, §2
# SNB-19 = test: as above; type: cell-based; settings: Homo sapiens, read-out: growth inhibition % (GI%)
# Description: as §1, §2
# HCT-15 = test: as above; type: cell-based; settings: Homo sapiens, read-out: growth inhibition % (GI%)
# Description: as §1, §2
# SW-620 = test: as above; type: cell-based; settings: Homo sapiens, read-out: growth inhibition % (GI%)
# Description: as §1, §2
# UACC-62 = test: as above; type: cell-based; settings: Homo sapiens, read-out: growth inhibition % (GI%)
# Description: as §1, §2
# A549/ATCC = test: as above; type: cell-based; settings: Homo sapiens, read-out: growth inhibition % (GI%)
# Description: as §1, §2
# MOLT-4 = test: as above; type: cell-based; settings: Homo sapiens, read-out: growth inhibition % (GI%)
# Description: as §1, §2
# MCF7 = test: as above; type: cell-based; settings: Homo sapiens, read-out: growth inhibition % (GI%)
# Description: as §1, §2
# MDA-MB-435 = test: as above; type: cell-based; settings: Homo sapiens, read-out: growth inhibition % (GI%)
# Description: as §1, §2
# OVCAR-5 = test: as above; type: cell-based; settings: Homo sapiens, read-out: growth inhibition % (GI%)
# Description: as §1, §2
# HOP-92 = test: as above; type: cell-based; settings: Homo sapiens, read-out: growth inhibition % (GI%)
# Description: as §1, §2
# NCI/ADR-RES = test: as above; type: cell-based; settings: Homo sapiens, read-out: growth inhibition % (GI%)
# Description: as §1, §2
# SF-295 = test: as above; type: cell-based; settings: Homo sapiens, read-out: growth inhibition % (GI%)
# Description: as §1, §2
# K-562 = test: as above; type: cell-based; settings: Homo sapiens, K562, read-out: growth inhibition % (GI%)
# Description: as §1, §2
SMILES,melting point [°C],inhibition at 10 µM (MDA-MB-468) [%],inhibition at 10 µM (SF-268) [%],inhibition at 10 µM (OVCAR-8) [%],inhibition at 10 µM (SK-MEL-5) [%],inhibition at 10 µM (SF-539) [%],inhibition at 10 µM (HOP-62) [%],inhibition at 10 µM (T-47D) [%],inhibition at 10 µM (NCI-H226) [%],inhibition at 10 µM (U251) [%],inhibition at 10 µM (CAKI-1) [%],inhibition at 10 µM (SNB-75) [%],inhibition at 10 µM (NCI-H522) [%],inhibition at 10 µM (UO-31) [%],inhibition at 10 µM (PC-3) [%],inhibition at 10 µM (MDA-MB-231/ATCC) [%],inhibition at 10 µM (IGROV1) [%],inhibition at 10 µM (ACHN) [%],inhibition at 10 µM (SN 12 C) [%],inhibition at 10 µM (LOX IMVI) [%],also measured
"Cc1ccc(C(=O)c2ccc(CC(=O)NNC(=O)Nc3c(C)cccc3Cl)n2C)cc1 [Compound 8b, N-(2-Chloro-6-methylphenyl)-2–(2-(1-methyl-5–(4-methylbenzoyl)-1H-pyrrol-2-yl)acetyl)hydrazinecarboxamide]",240 to 242,< 10,< 10,< 10,< 10,< 10,< 10,< 10,< 10,< 10,11.3,27.9,< 10,26.1,< 10,< 10,11.2,< 10,< 10,< 10,inhibition at 10 µM (RPMI-8226): < 10%; inhibition at 10 µM (NCI-H23): < 10%; inhibition at 10 µM (RXF 393): < 10%; inhibition at 10 µM (HS 578 T): < 10%; inhibition at 10 µM (EKVX): < 10%; inhibition at 10 µM (A498): < 10%; inhibition at 10 µM (BT-5): 12.7%; inhibition at 10 µM (M14): < 10%; inhibition at 10 µM (SNB-19): 16.1%; inhibition at 10 µM (HCT-15): < 10%; inhibition at 10 µM (SW-620): < 10%; inhibition at 10 µM (UACC-62): < 10%; inhibition at 10 µM (A549/ATCC): < 10%; inhibition at 10 µM (MOLT-4): < 10%; inhibition at 10 µM (MCF7): < 10%
"Cc1ccc(C(=O)c2ccc(CC(=O)NN=C3C(=O)Nc4ccc(OC(F)(F)F)cc43)n2C)cc1 [Compound 6c, 2–(1-Methyl-5–(4-methylbenzoyl)-1H-pyrrol-2-yl)-N′-(2-oxo-5-(trifluoromethoxy)indolin-3-ylidene)acetohydrazide]",157 to 159,< 10,< 10,< 10,< 10,< 10,11.1,< 10,< 10,< 10,12.6,37.1,11.9,24.3,< 10,< 10,< 10,< 10,< 10,< 10,inhibition at 10 µM (MDA-MB-435): < 10%; inhibition at 10 µM (OVCAR-5): < 10%; inhibition at 10 µM (HOP-92): < 10%; inhibition at 10 µM (NCI/ADR-RES): < 10%; inhibition at 10 µM (SF-295): < 10%; inhibition at 10 µM (K-562): < 10%; inhibition at 10 µM (SNB-19): < 10%; inhibition at 10 µM (SW-620): < 10%; inhibition at 10 µM (UACC-62): < 10%; inhibition at 10 µM (MCF7): < 10%
